Holding throughout (experiment): cAMP functional assay (HTRF) in HEK293 cells in presence of 0.1% casein
What all share (type): cell-based

Assay [1] has as its target T1, human glucose-dependent insulinotropic peptide receptor (GIPR) (Homo sapiens, UniProt P48546).
T1 construct: expressed in transfected cells; host or cells: HEK293
T1 sequence (P48546 22-466): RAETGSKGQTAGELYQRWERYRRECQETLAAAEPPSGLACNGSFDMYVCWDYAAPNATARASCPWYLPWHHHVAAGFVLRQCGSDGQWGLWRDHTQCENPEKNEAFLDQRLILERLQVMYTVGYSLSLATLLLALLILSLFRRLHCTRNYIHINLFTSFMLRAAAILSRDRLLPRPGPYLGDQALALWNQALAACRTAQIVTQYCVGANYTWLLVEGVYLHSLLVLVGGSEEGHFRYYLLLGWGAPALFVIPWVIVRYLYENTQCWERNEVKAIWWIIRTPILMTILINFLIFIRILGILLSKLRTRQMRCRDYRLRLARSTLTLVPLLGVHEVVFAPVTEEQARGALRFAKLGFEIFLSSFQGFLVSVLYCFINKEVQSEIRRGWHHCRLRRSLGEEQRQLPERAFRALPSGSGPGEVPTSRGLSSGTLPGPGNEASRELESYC
As to conditions: HEK293 cells expressing human GIPR, geometric mean, read-out: hGIPR cAMP Rel EC50 nM (SEM, n).

The target in assay [2] is T2, human glucagon receptor (GcgR) (Homo sapiens, UniProt P47871).
T2 construct: expressed in transfected cells; host or cells: HEK293
As to conditions: HEK293 cells expressing human GcgR, geometric mean, read-out: hGcgR cAMP Rel EC50 nM (SEM, n).

Assay [3] deals with T3, human GLP-1 receptor (GLP-1R) (Homo sapiens, UniProt P43220).
T3 construct: expressed in transfected cells; host or cells: HEK293
As to conditions: HEK293 cells expressing human GLP-1R, geometric mean, read-out: hGLP1R cAMP Rel EC50 nM (SEM, n).

The results in this text go back to patent US12723063B2, “GIPR-agonist compounds” (Eli Lilly and Company, priority 2019, dated 2026).

T3 sequence (P43220 24-463): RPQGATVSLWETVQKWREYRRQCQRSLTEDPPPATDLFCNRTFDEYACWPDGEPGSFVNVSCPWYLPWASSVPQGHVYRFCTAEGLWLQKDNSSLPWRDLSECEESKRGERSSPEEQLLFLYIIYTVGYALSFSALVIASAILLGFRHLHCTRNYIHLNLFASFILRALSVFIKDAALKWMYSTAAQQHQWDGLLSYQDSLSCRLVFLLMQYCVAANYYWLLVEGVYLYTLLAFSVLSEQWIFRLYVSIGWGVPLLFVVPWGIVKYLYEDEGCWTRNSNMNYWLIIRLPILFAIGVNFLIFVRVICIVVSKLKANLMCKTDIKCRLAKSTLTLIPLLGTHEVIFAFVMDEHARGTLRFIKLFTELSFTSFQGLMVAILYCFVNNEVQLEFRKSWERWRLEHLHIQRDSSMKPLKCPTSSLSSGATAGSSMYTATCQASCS
T2 sequence (P47871 26-477): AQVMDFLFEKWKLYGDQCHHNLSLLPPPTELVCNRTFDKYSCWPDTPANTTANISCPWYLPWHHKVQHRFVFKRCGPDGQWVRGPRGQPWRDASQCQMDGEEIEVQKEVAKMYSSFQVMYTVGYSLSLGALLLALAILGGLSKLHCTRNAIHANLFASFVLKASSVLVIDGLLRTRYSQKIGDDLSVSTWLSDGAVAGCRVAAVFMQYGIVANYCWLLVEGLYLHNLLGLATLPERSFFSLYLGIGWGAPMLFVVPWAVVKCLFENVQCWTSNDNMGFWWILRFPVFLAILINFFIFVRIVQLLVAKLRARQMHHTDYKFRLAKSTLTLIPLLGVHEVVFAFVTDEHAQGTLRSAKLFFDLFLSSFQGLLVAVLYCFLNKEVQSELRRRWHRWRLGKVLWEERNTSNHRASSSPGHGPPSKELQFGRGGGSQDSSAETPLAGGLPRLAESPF

Take `CC[C@H](C)[C@H](NC(=O)[C@H](CCCCN)NC(=O)[C@H](CC(=O)O)NC(=O)[C@H](CC(C)C)NC(=O)[C@](C)(CC(C)C)NC(=O)[C@@H](NC(=O)[C@H](CO)NC(=O)[C@H](Cc1ccc(O)cc1)NC(=O)[C@H](CC(=O)O)NC(=O)[C@H](CO)NC(=O)[C@@H](NC(=O)[C@H](Cc1ccccc1)NC(=O)[C@@H](NC(=O)CNC(=O)[C@H](CCC(=O)O)NC(=O)C(C)(C)NC(=O)[C@@H](N)Cc1ccc(O)cc1)[C@@H](C)O)[C@@H](C)CC)[C@@H](C)CC)C(=O)N[C@@H](Cc1c[nH]cn1)C(=O)N[C@@H](CCC(N)=O)C(=O)NC(C)(C)C(=O)N[C@@H](CC(=O)O)C(=O)N[C@@H](Cc1ccccc1)C(=O)N[C@H](C(=O)N[C@@H](CCC(=O)O)C(=O)N[C@@H](Cc1ccc(O)cc1)C(=O)N[C@@H](CCCCNC(=O)COCCOCCNC(=O)COCCOCCNC(=O)CC[C@H](NC(=O)CCCCCCCCCCCCCCCCCCC(=O)O)C(=O)O)C(=O)N[C@@H](CC(C)C)C(=O)N[C@@H](CCC(=O)O)C(=O)NCC(=O)NCC(=O)N1CCC[C@H]1C(=O)N[C@@H](CO)C(=O)N[C@@H](CO)C(=O)NCC(=O)N[C@@H](C)C(=O)N1CCC[C@H]1C(=O)N1CCC[C@H]1C(=O)N1CCC[C@H]1C(=O)N[C@@H](CO)C(N)=O)C(C)C` [Example 5]: the half-maximal effective concentration (EC50) in assay [1] is 0.0148 nM; in assay [2], more than 5000 nM; in assay [3] it was more than 5000 nM.
Consider `CC[C@H](C)[C@H](NC(=O)[C@H](Cc1ccccc1)NC(=O)[C@@H](NC(=O)CNC(=O)[C@H](CCC(=O)O)NC(=O)C(C)(C)NC(=O)[C@@H](N)Cc1ccc(O)cc1)[C@@H](C)O)C(=O)N[C@@H](CO)C(=O)N[C@@H](CC(=O)O)C(=O)N[C@@H](Cc1ccc(O)cc1)C(=O)N[C@@H](CO)C(=O)N[C@H](C(=O)N[C@@](C)(CC(C)C)C(=O)N[C@@H](CC(C)C)C(=O)N[C@@H](CC(=O)O)C(=O)N[C@@H](CCCCN)C(=O)N[C@@H](CCCCNC(=O)COCCOCCNC(=O)COCCOCCNC(=O)CC[C@H](NC(=O)CCCCCCCCCCCCCCCCCCC(=O)O)C(=O)O)C(=O)N[C@@H](Cc1c[nH]cn1)C(=O)N[C@@H](CCC(N)=O)C(=O)NC(C)(C)C(=O)N[C@@H](CC(=O)O)C(=O)N[C@@H](Cc1ccccc1)C(=O)N[C@H](C(=O)N[C@@H](CCC(=O)O)C(=O)N[C@@H](Cc1ccncc1)C(=O)N[C@@H](CC(C)C)C(=O)N[C@@H](CC(C)C)C(=O)N[C@@H](C)C(=O)N[C@@H](C)C(=O)NCC(=O)N1CCC[C@H]1C(=O)N[C@@H](CO)C(=O)N[C@@H](CO)C(=O)NCC(=O)N[C@@H](C)C(=O)N1CCC[C@H]1C(=O)N1CCC[C@H]1C(=O)N1CCC[C@H]1C(=O)N[C@@H](CO)C(N)=O)C(C)C)[C@@H](C)CC` [Example 78], for which the half-maximal effective concentration (EC50) in assay [1] is 0.0125 nM; in assay [2], 3000 nM; in assay [3] it was more than 5000 nM.

The term EC50 denotes the concentration at which the effect is half-maximal.
